According to article PMC6445193 (Journal of Enzyme Inhibition and Medicinal Chemistry, 2017):
Where two headings read alike, the source gives them in different places. One block for each molecule: values may come before it.

How the values were obtained:
[1] = target: T1, human S-adenosyl-homocysteine hydrolase (rSAHH) (Homo sapiens, UniProt P23526); test: SAHH inhibition, IC50 determination with recombinant SAHH (hydrolysis of SAH, Hcy determined with DTNB); type: biochemical
[2] = target: T1, human S-adenosyl-homocysteine hydrolase (rSAHH); test: Enzyme kinetics of SAHH-catalyzed hydrolysis of SAH; type: biochemical
SAHH = test system: SAHH; design: method as in PMID 24813734; settings: data from literature; cited from earlier work
[3] = design: method as in PMID 24813734; settings: long term exposure; cited from earlier work
brain homocysteine = test system: brain homocysteine; design: method as in PMID 24813734; settings: reported by Converso; cited from earlier work
[4] = recombinant human SAHH, Tris-HCl pH 6.5, read-out: SAHH IC50

T1 sequence (P23526 whole entry): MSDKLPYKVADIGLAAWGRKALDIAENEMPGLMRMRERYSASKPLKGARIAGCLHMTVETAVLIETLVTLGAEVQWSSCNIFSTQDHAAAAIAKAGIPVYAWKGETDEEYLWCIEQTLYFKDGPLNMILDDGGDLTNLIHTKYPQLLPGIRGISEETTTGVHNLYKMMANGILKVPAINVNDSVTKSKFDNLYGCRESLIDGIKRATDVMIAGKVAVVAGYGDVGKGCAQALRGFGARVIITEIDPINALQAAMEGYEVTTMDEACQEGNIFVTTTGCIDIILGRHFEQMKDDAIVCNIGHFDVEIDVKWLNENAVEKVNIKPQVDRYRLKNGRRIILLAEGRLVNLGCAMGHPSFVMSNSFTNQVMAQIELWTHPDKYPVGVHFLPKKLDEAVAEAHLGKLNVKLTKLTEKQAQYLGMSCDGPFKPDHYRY

Compound: On1nnc2ccccc21 [Compound 1]
IC50 [1]: 1240 nM

IC50 [1, 4]: 34 nM
Compound: COc1cc(C=CCO)ccc1O [Compound 13, 4-(3-hydroxyprop-1-en-1-yl)-2-methoxyphenol]

Compound: COc1ccc(N)cc1 [Compound 9]
IC50 [1, 4]: 899 nM

Compound: COc1cc(C=O)ccc1O [Compound 5]
IC50 [1, 4]: 1100 nM

IC50 [1, 4]: 571 nM
Compound: O=C(O)/C=C/c1ccc(Cl)cc1 [Compound 12]

Compound: Nc1ncnc2c1ncn2[C@@H]1O[C@H](CSCC[C@H](N)C(=O)O)[C@@H](O)[C@H]1O [SAH, S-adenosylhomocysteine]
Km ([2]; read-out: apparent Km of the hydrolytic reaction, substrate SAH): ~21.8 µM
Vmax ([2]; substrate SAH): 22.9 µM/min

Compound: Fc1ccc(CBr)c(F)c1 [Compound 3]
IC50 [1]: 913 nM

Compound: Nc1ncnc2c1ncn2[C@@H]1C=C(CO)[C@@H](O)[C@H]1O [NepA, Neplanocin A]
IC50 (SAHH): 1.5 nM
cytotoxicity [3]: cytotoxic upon long term exposure

Compound: COc1ccc(C=O)cc1 [Compound 2]
IC50 [1, 4]: 2130 nM

IC50 [1, 4]: 679 nM
Compound: O=C(O)c1ccc(F)cc1 [Compound 8]

Compound: Nc1ncc(F)c2c1ncn2[C@@H]1CC[C@@H](O)[C@H]1O [20 ^*]
IC50 (SAHH): 40 nM
effect on brain homocysteine (brain homocysteine): reduce brain homocysteine in a dose-dependent manner

Compound: COc1ccc(/C=C/C(=O)O)cc1 [Compound 11]
IC50 [1, 4]: 986 nM

Compound: O=C(OO)c1ccc(Cl)cc1 [Compound 6]
IC50 [1]: 565 nM

Compound: Oc1ccc(Cl)c(O)c1 [Compound 7]
IC50 [1]: 1110 nM

IC50 [1, 4]: 1400 nM
Compound: CCOC(=O)c1ccc(N)cc1 [Compound 10]

IC50 [1, 4]: 814 nM
Compound: COC(=O)/C=C/c1ccc(CBr)cc1 [Compound 4]
